Test results taken from patent publication US20210188856A1, “CRYSTAL FORM OF HYDROCHLORIDE OF PYRAZOLOHETEROARYL DERIVATIVE AND PREPARATION METHOD” (JIANGSU HENGRUI MEDICINE CO., LTD., priority 2018, published 2021).
Entries after “also recorded” stand apart in the source; their conditions may differ. Where two headings read alike, the source gives them in different places.

Assays:
Format in all cases: physicochemical
[1] = Solubility in PBS 7.4 and FaSSIF solutions; settings: thermodynamic from solid
From the text: The amorphous samples of the compound represented by formula (I) and the crystal form I samples of the dihydrochloride salt of the compound represented by formula (I) obtained in the present disclosure were further evaluated for solubility in PBS 7.4 and FaSSIF solutions.

Log D = test: Log D
[2] = Hygroscopicity by dynamic vapor sorption (DVS); settings: 25° C.
Experimental: DVS is dynamic vapor sorption: Surface Measurement Systems advantage 2 is used, the humidity starts from 50%, the humidity range is 0%-95%, and the step size is 10%. The judgment standard is that the mass change is less than 0.01% within 10000 min, and two cycles are performed. Surface Measurement Systems advantage 2 was used, the experiment was carried out at 25° C. with humidity starting from 50%, the humidity range observed was 0%-95%, the step size was 10%, and the judgment standard was that the mass change was less than 0.01% within 10000 min, and two cycles were performed.

[3] = Influencing factors stability (heating, light illumination, high humidity; spread and uncovered, 20 days)
Experimental: Example 6: the crystal form I of the dihydrochloride salt of the compound represented by formula (I) (example 1) was spread and uncovered, and the steadily of the sample was evaluated under heating (40° C., 60° C.), light illumination (4500 Lux), and high humidity (RH 75%, RH 90%) with a period of 20 days.
(§1) Example 10: the crystal form A (example 7) of the monohydrochloride salt of the compound of formula (I) was spread and uncovered, and the stability of the sample was evaluated under heating (40° C., 60° C.), light illumination (4500 Lux), high humidity (RH 75%, RH 90%) conditions with a period of 20 days.
as §1, with “Example 11:” for “Example 10:”, “form B” for “form A (example 7)”, “compound represented by” for “compound of”, “(I) (example 8)” for “(I)”
as §1, with “Example 12:” for “Example 10:”, “form C” for “form A (example 7)”, “compound represented by” for “compound of”, “(I) (example 9)” for “(I)”

[4] = Long-term stability, 25° C., 60% RH, 9 months; settings: for Purity % 3 months / Purity % 9 months / Purity Initial: 60% RH
Experimental: Example 13: Three batches of the crystal form I of the dihydrochloride salt of the compound of formula (I) were subjected to a long-term stability investigation of 9 months under the conditions of 25° C±2° C., 60%RH±5%RH.

[5] = XRPD of sample taken out during DSC temperature rise
From the text: According to X-ray powder diffraction detection, the crystal form is crystal form I, and the XRPD pattern thereof is shown in FIG. 1.

[6] = light illumination (4500 Lux), 4 days
[7] = light illumination (4500 Lux), 10 days
[8] = light illumination (4500 Lux), 20 days

For `CCCCOc1nc(N)c2cnn(Cc3ccc(CN4CCCC4)cc3)c2n1.Cl.Cl` [crystal form I, 6-butoxy-1-(4-(pyrrolidin-1-ylmethyl)benzyl)-1H-pyrazolo[3,4-d]pyrimidin-4-amine dihydrochloride], the solubility ([1]; FaSSIF solution, fassif, read-out: FasSIF Solubility) was 1250 µg/mL, the solubility ([1]; PBS 7.4, pH 7.4, aqueous buffer, read-out: PBS 7.4 Solubility) was 50 µg/mL and the logD (Log D) was 1.17. For the same molecule, the “DVS weight change 0.0% RH-95.0% RH” value ([2]; 0.0% RH-95.0% RH) was 9.19%, the “DVS weight change 10%RH-90.0%RH” value ([2]; 10%RH-90.0%RH) was 6.628% and the “Crystal form before and after DVS (XRPD)” value ([2]; DVS two cycles, dihydrochloride) was “did not change; also recorded: has not changed; also recorded: unchanged”. For the same molecule, the “hygroscopicity (in words)” value ([2]; DVS, dihydrochloride) was “slightly hygroscopic; also recorded: (with hygroscopicity)”, the Maximum single impurity ([3]; 0 day) was 0.11% and the Purity ([3]; 0 day) was 99.47%. For the same molecule, the Total impurities ([3]; 0 day) was 0.53%, the Maximum single impurity ([3]; 40° C., 4 days) was 0.11% and the Purity ([3]; 40° C., 4 days) was 99.49%. The Total impurities ([3]; 40° C., 4 days) was 0.51%, the Maximum single impurity ([3]; 40° C., 10 days) was 0.12% and the Purity ([3]; 40° C., 10 days) was 99.52%. It also gave a Total impurities ([3]; 40° C., 10 days) of 0.48%, a Maximum single impurity ([3]; 40° C., 20 days) of 0.12% and a Purity ([3]; 40° C., 20 days) of 99.46%. The Total impurities ([3]; 40° C., 20 days) was 0.54%, the Maximum single impurity ([3]; 60° C., 4 days) was 0.15% and the Purity ([3]; 60° C., 4 days) was 99.44%. It also gave a Total impurities ([3]; 60° C., 4 days) of 0.56%, a Maximum single impurity ([3]; 60° C., 10 days) of 0.11% and a Purity ([3]; 60° C., 10 days) of 99.53%. It also gave a Total impurities ([3]; 60° C., 10 days) of 0.47%, a Maximum single impurity ([3]; 60° C., 20 days) of 0.11% and a Purity ([3]; 60° C., 20 days) of 99.42%. It also gave a Total impurities ([3]; 60° C., 20 days) of 0.58%, a Maximum single impurity ([3]; 75% RH, 4 days) of 0.15% and a Purity ([3]; 75% RH, 4 days) of 99.38%. It also gave a Total impurities ([3]; 75% RH, 4 days) of 0.62%, a Maximum single impurity ([3]; 75% RH, 10 days) of 0.12% and a Purity ([3]; 75% RH, 10 days) of 99.53%. The Total impurities ([3]; 75% RH, 10 days) was 0.47%, the Maximum single impurity ([3]; 75% RH, 20 days) was 0.11% and the Purity ([3]; 75% RH, 20 days) was 99.47%. The Total impurities ([3]; 75% RH, 20 days) was 0.53%, the Maximum single impurity ([3]; 90% RH, 4 days) was 0.11% and the Purity ([3]; 90% RH, 4 days) was 99.46%. It also gave a Total impurities ([3]; 90% RH, 4 days) of 0.54%, a Maximum single impurity ([3]; 90% RH, 10 days) of 0.12% and a Purity ([3]; 90% RH, 10 days) of 99.54%. It also gave a Total impurities ([3]; 90% RH, 10 days) of 0.46%, a Maximum single impurity ([3]; 90% RH, 20 days) of 0.11% and a Purity ([3]; 90% RH, 20 days) of 99.52%. The Total impurities ([3]; 90% RH, 20 days) was 0.48%, the Maximum single impurity [3, 6] was 0.14% and the Purity [3, 6] was 99.45%. For the same molecule, the Total impurities [3, 6] was 0.55%, the Maximum single impurity [3, 7] was 0.11% and the Purity [3, 7] was 99.54%. The Total impurities [3, 7] was 0.46%, the Maximum single impurity [3, 8] was 0.12% and the Purity [3, 8] was 99.41%. For the same molecule, the Total impurities [3, 8] was 0.59%, the “stability under the influencing factor conditions (in words)” value ([3]; light illumination, 40° C., 60° C., 75% RH, 90% RH, 20 days) was “good” and the “physical and chemical stability, long-term (in words)” value ([4]; 25° C., 60% RH for 9 months) was “good”. For the same molecule, the “Purity % 3 months” value ([4]; Batch 1, 25° C., 3 months) was 99.52%, the “Purity % 3 months” value ([4]; Batch 1, 25° C., 3 months as printed, column between 3 and 9 months) was 99.57% and the “Purity % 9 months” value ([4]; Batch 1, 25° C.) was 99.50%. For the same molecule, the “Purity Initial” value ([4]; Batch 1, 25° C.) was 99.57%, the “Purity % 3 months” value ([4]; Batch 2, 25° C., 3 months) was 99.50% and the “Purity % 3 months” value ([4]; Batch 2, 25° C., 3 months as printed, column between 3 and 9 months) was 99.48%. The “Purity % 9 months” value ([4]; Batch 2, 25° C.) was 99.48%, the “Purity Initial” value ([4]; Batch 2, 25° C.) was 99.53% and the “Purity % 3 months” value ([4]; Batch 3, 25° C., 3 months) was 99.38%. For the same molecule, the “Purity % 3 months” value ([4]; Batch 3, 25° C., 3 months as printed, column between 3 and 9 months) was 99.33%, the “Purity % 9 months” value ([4]; Batch 3, 25° C.) was 99.40% and the “Purity Initial” value ([4]; Batch 3, 25° C.) was 99.44%. The “crystal form before and after temperature rise (XRPD)” value ([5]; raised to 150° C.) was “did not change” and the “crystal form before and after temperature rise (XRPD)” value ([5]; raised to 175° C.) was “did not change”.
